Source: the OligoGym collection
“And” between values parts separate entries of the source, which are not always exact repeats. Identical values can stand only once. After the bases stand the sugars from the 5' end (letter, count) and the backbone: PS all phosphorothioate, else s phosphorothioate and o phosphodiester by linkage. Methylation of C is not given here. e = 2'-O-(2-methoxyethyl) (MOE); k = constrained ethyl (cEt); d = 2'-deoxy (DNA); m = 2'-O-methyl

Molecular target: HSD17B13
Conditions: ASO, HepaRG

Row | Sequence | target mRNA inhibition (1 µM) | further results
1 | CAAGTGACAGCATTGA (sugars k3 d10 k3, PS) | 48% | –
2 | CAAGTTTGTTCATAGT (sugars k3 d10 k3, PS) | 78% | –
3 | CAATCTAGCAACCTCT (sugars k3 d10 k3, PS) | 51% | –
4 | CAATGGTTGATAGTTT (sugars k3 d10 k3, PS) | 47% | –
5 | CAATTATATGAGGTCT (sugars k3 d10 k3, PS) | 36% | –
6 | CAATTGCTCTATAGAT (sugars k3 d10 k3, PS) | 15% | –
7 | CACAAGTAAGGTAAAG (sugars k3 d1 m1 d8 k3, PS) | 43% | –
8 | CACAATCTAGCAACCT (sugars k3 d10 k3, PS) | 40% | –
9 | CACACCGCGCTTATTA (sugars k3 d10 k3, PS) | 11% | –
10 | CACATATGTGAAGAGC (sugars kkdddddddddkekek, PS) | 53% | –
11 | CACCAACGACTCCAAG (sugars k3 d10 k3, PS) | 16% | –
12 | CACCTGATTTAGAGAG (sugars k3 d10 k3, PS) | 11% | –
13 | CACCTTATTAATATCC (sugars k3 d10 k3, PS) | 34% | –
14 | CACGAAGCCTGAATGC (sugars k3 d10 k3, PS) | 24% | –
15 | CACTATCAGAACAGTT (sugars k3 d10 k3, PS) | 24% | –
16 | CACTTTCACTGGGTGT (sugars k3 d10 k3, PS) | 7% | –
17 | CAGAAAGTTCATTCGA (sugars k3 d10 k3, PS) | 67% | –
18 | CAGAAGGATTTCTAGG (sugars k3 d10 k3, PS) | 43% | –
19 | CAGACCTATGAAAAAC (sugars k3 d10 k3, PS) | 26% | –
20 | CAGAGACATGAGGTTT (sugars kkdddddddddkekek, PS) | 61% | –
21 | CAGATTGGAATGCTAC (sugars kkdddddddddkekek, PS) | 57% | –
22 | CAGCATCAAGACATTC (sugars k3 d1 m1 d8 k3, PS) | 52% | –
23 | CAGCATTGATTCGAAA (sugars kkdddddddddkekek, PS) | 58% | –
24 | CAGGAATGCATAAGAG (sugars k3 d10 k3, PS) | 33% | –
25 | CAGGUTGAGATAAAGC (sugars k3 d1 m1 d8 k3, PS) | 55% | –

Row | Sequence | target mRNA inhibition (1 µM) | further results
26 | CAGTACAGTTCCTTTT (sugars k3 d10 k3, PS) | 43% | –
27 | CAGTAGGCAGTTTCTC (sugars k3 d10 k3, PS) | 72% and 50% | target mRNA inhibition (0.02 µM): 0%; target mRNA inhibition (0.078 µM): 0%; target mRNA inhibition (0.313 µM): 30%; target mRNA inhibition (1.25 µM): 55%; target mRNA inhibition (5 µM): 86%
28 | CAGTCTTAAACCTTCC (sugars k3 d10 k3, PS) | 70% | –
29 | CAGTTATTAGAAGTCA (sugars k3 d10 k3, PS) | 85% | target mRNA inhibition (0.02 µM): 0%; target mRNA inhibition (0.078 µM): 0%; target mRNA inhibition (0.313 µM): 0%; target mRNA inhibition (1.25 µM): 56%; target mRNA inhibition (5 µM): 88%
30 | CAGTTTAGATTGCATA (sugars k3 d10 k3, PS) | 60% | –
31 | CAGTTTTCCTCATGAT (sugars kkdddddddddkekek, PS) | 59% | –
32 | CATAAAAATCGCTGCT (sugars k3 d10 k3, PS) | 45% | –
33 | CATAAAGGTGGGATAA (sugars k3 d10 k3, PS) | 23% | –
34 | CATAACCTAATAACTA (sugars k3 d10 k3, PS) | 10% | –
35 | CATAACTTCATAGTGG (sugars k3 d9 k3 e1, PS) | 16% | –
36 | CATAAGGCCGATTCAT (sugars k3 d10 k3, PS) | 32% | –
37 | CATAAGTAGTCTGCCT (sugars k3 d10 k3, PS) | 31% | –
38 | CATAAGTTACCAGAGC (sugars k3 d10 k3, PS) | 80% | target mRNA inhibition (0.02 µM): 26%; target mRNA inhibition (0.078 µM): 41%; target mRNA inhibition (0.313 µM): 63%; target mRNA inhibition (1.25 µM): 86%; target mRNA inhibition (5 µM): 94%
39 | CATAATAATAGCTCTA (sugars k3 d1 m1 d8 k3, PS) | 33% | –
40 | CATACCACTCTTCTCA (sugars k3 d10 k3, PS) | 24% | –
41 | CATAGGACATGGAGAC (sugars k3 d10 k3, PS) | 69% | target mRNA inhibition (0.02 µM): 0%; target mRNA inhibition (0.078 µM): 16%; target mRNA inhibition (0.313 µM): 37%; target mRNA inhibition (1.25 µM): 58%; target mRNA inhibition (5 µM): 83%
42 | CATAGTGGACTTCATT (sugars k3 d10 k3, PS) | 34% | –
43 | CATATACAGACTAAGG (sugars k3 d10 k3, PS) | 57% | –
44 | CATATCCAGTAGGTGT (sugars k3 d10 k3, PS) | 37% | –
45 | CATATGGTGTACACTG (sugars k3 d10 k3, PS) | 15% | –
46 | CATATGTGAAGAGCTG (sugars k3 d9 k3 e1, PS) | 50% | –
47 | CATATGTGAAGAGCTG (sugars k3 d10 k3, PS) | 25% | –
48 | CATAUGTGAAGAGCTG (sugars k3 d1 m1 d8 k3, PS) | 39% | –
49 | CATCAAGACATTCTAG (sugars k3 d10 k3, PS) | 49% | –
50 | CATCCTTGGTGCTGAG (sugars k3 d10 k3, PS) | 12% | –

Row | Sequence | target mRNA inhibition (1 µM) | further results
51 | CATCGATGGAAGAAGT (sugars k3 d10 k3, PS) | 16% | –
52 | CATCTAACTAACCTGA (sugars k3 d10 k3, PS) | 0% | –
53 | CATCTAGAATTAAGGG (sugars k3 d10 k3, PS) | 53% | –
54 | CATCTATCATGCCTTC (sugars k3 d10 k3, PS) | 18% | –
55 | CATCTCTGGGACCAAG (sugars k3 d10 k3, PS) | 51% | –
56 | CATCUCTGGGACCAAG (sugars k3 d1 m1 d8 k3, PS) | 42% | –
57 | CATTCGAATTTCTTCA (sugars k3 d10 k3, PS) | 77% | target mRNA inhibition (0.02 µM): 29%; target mRNA inhibition (0.078 µM): 53%; target mRNA inhibition (0.313 µM): 74%; target mRNA inhibition (1.25 µM): 91%; target mRNA inhibition (5 µM): 97%
58 | CATTCTAAACTACTAT (sugars k3 d10 k3, PS) | 11% | –
59 | CATTCTGTGTTCTTGT (sugars k3 d10 k3, PS) | 60% | –
60 | CATTGATTCGAAACTA (sugars k3 d10 k3, PS) | 40% | –
61 | CATTTAGAATACGCTG (sugars k3 d10 k3, PS) | 25% | –
62 | CCAAATCAGGTAGTTT (sugars k3 d10 k3, PS) | 13% | –
63 | CCAACCAAACTTCCAG (sugars k3 d1 m1 d8 k3, PS) | 30% | –
64 | CCAACGACTCCAAGTA (sugars k3 d10 k3, PS) | 20% | –
65 | CCAAGTAGGAGTAGAT (sugars k3 d10 k3, PS) | 19% | –
66 | CCAATACAGGCCATAA (sugars k3 d10 k3, PS) | 38% | –
67 | CCACATAGCTAACTCA (sugars k3 d10 k3, PS) | 53% | –
68 | CCACTTTTGGTGGACT (sugars k3 d10 k3, PS) | 17% | –
69 | CCAGAAGTATGTGAAC (sugars k3 d10 k3, PS) | 8% | –
70 | CCAGTACAGTTCCTTT (sugars k3 d9 k3 e1, PS) | 76% | target mRNA inhibition (0.02 µM): 10%; target mRNA inhibition (0.078 µM): 20%; target mRNA inhibition (0.313 µM): 43%; target mRNA inhibition (1.25 µM): 73%; target mRNA inhibition (5 µM): 83%
71 | CCATAACCATAGGACA (sugars k3 d10 k3, PS) | 63% | target mRNA inhibition (0.02 µM): 35%; target mRNA inhibition (0.078 µM): 13%; target mRNA inhibition (0.313 µM): 54%; target mRNA inhibition (1.25 µM): 78%; target mRNA inhibition (5 µM): 91%
72 | CCATAATAATAGCTCT (sugars k3 d10 k3, PS) | 48% | –
73 | CCATCCCCTAAGTTAT (sugars k3 d10 k3, PS) | 14% | –
74 | CCATCTAGAATTAAGG (sugars k3 d10 k3, PS) | 0% | –
75 | CCATCTATCAGACTTC (sugars k3 d10 k3, PS) | 78% | target mRNA inhibition (0.02 µM): 0%; target mRNA inhibition (0.078 µM): 0%; target mRNA inhibition (0.313 µM): 20%; target mRNA inhibition (1.25 µM): 63%; target mRNA inhibition (5 µM): 78%

Row | Sequence | target mRNA inhibition (1 µM) | further results
76 | CCATGCAAAAGCATTC (sugars k3 d10 k3, PS) | 72% | –
77 | CCCAACCCAAGCTACC (sugars k3 d10 k3, PS) | 22% | –
78 | CCCACAGAACCAATAT (sugars k3 d10 k3, PS) | 16% | –
79 | CCCAGCATTATTCACC (sugars k3 d10 k3, PS) | 19% | –
80 | CCCCGAATTATTTCTT (sugars k3 d10 k3, PS) | 35% | –
81 | CCCGCCCTTAAGTCAT (sugars k3 d10 k3, PS) | 45% | –
82 | CCCTAAGTTATTATCC (sugars k3 d10 k3, PS) | 25% | –
83 | CCCTGTGTAAATAAGT (sugars k3 d10 k3, PS) | 41% | –
84 | CCCTTAACAAACCTCC (sugars k3 d10 k3, PS) | 43% | –
85 | CCCTTAGGAAAGCTCA (sugars k3 d10 k3, PS) | 37% | –
86 | CCGCACACTGAAGCCA (sugars k3 d10 k3, PS) | 34% | –
87 | CCTAAGATAAAATTGC (sugars k3 d10 k3, PS) | 18% | –
88 | CCTATGAAAAACTACG (sugars k3 d10 k3, PS) | 36% | –
89 | CCTCCTTATTTGTTAG (sugars k3 d10 k3, PS) | 41% | –
90 | CCTCGATCCTATATAC (sugars kkdddddddddkekek, PS) | 3% | –
91 | CCTCUAAGTTAGCCCC (sugars k3 d1 m1 d8 k3, PS) | 8% | –
92 | CCTGCCTATTCCATGC (sugars k3 d10 k3, PS) | 24% | –
93 | CCTGTGTAAATAAGTT (sugars k3 d10 k3, PS) | 18% | –
94 | CCTTACCAGAATTTAC (sugars k3 d10 k3, PS) | 63% | –
95 | CCTTACCTTGTGCTTG (sugars k3 d10 k3, PS) | 20% | –
96 | CCTTAGGAAAGCTCAT (sugars k3 d10 k3, PS) | 29% | –
97 | CCTTATACTGAAGGCT (sugars k3 d10 k3, PS) | 41% | –
